Reference: ChEMBL document CHEMBL1201862, “PubChem BioAssay data set” (2004)
The source made the active and inactive calls.

What was measured:
[1] = biological target: T1, Nuclear receptor subfamily 0 group B member 1 (Homo sapiens, UniProt P51843); type: functional, cell-based;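 further: HEK293T cells transfected with SF-1 and DAX-1 plus StAR promoter luciferase reporter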
T1 sequence (P51843 whole entry): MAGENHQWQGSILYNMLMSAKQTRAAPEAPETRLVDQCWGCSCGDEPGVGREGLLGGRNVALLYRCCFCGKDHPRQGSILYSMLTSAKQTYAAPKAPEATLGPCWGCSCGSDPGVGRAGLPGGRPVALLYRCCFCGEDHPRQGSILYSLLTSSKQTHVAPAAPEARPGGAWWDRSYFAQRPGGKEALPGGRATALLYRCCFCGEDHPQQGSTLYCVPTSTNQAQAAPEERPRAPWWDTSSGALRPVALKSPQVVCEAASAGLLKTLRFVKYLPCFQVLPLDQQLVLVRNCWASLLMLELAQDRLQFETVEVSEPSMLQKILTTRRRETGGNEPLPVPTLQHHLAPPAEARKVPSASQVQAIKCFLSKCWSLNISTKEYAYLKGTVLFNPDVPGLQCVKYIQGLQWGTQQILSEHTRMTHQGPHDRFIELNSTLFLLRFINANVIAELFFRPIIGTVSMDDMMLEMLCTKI

[2] = biological target: Mu-type opioid receptor (Homo sapiens, UniProt P35372); type: functional, cell-based;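 further: U2OS cells with beta-arrestin recruitment to OPRM1 by beta-gal complementation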
[3] = biological target: 5-hydroxytryptamine receptor 2A (Mus musculus, UniProt P35363); type: functional, cell-based;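 further: CHO-K1 cells with tagged receptor and beta-arrestin; agonist potency measured as compound-induced activation of the receptor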
[4] = biological target: Disintegrin and metalloproteinase domain-containing protein 17 (Homo sapiens, UniProt P78536); experiment: ADAM17 protease inhibitors, dose response, counter-screen for ADAM10 exosite inhibitor project, biochemical, quenched FRET substrate (AID 743253)
[5] = Luminescence Cell-Based Dose Retest to Confirm Inhibitors of Cancer Stem Cells. [Related pubchem assays (depositor defined):AID2717, AID2721]; type: functional; conditions: Homo sapiens
[6] = ADAM10 inhibitors, peptide cleavage, dose response, biochemical, QFRET (AID 743254);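 further: ADAM10 enzyme with the DM2 quenched FRET peptide as substrate; EDANS fluorescence gain as the protease cuts the substrate; inhibitor potency against ADAM10 proteolytic activity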
[7] = cells; type: functional, cell-based
[8] = biological target: T2, Trace amine-associated receptor 1 (Homo sapiens, UniProt Q96RJ0); experiment: Fluorescence-based cell-based high throughput dose response assay to identify agonists of the human trace amine associated receptor 1 (TAAR1).; type: functional
T2 sequence (Q96RJ0 whole entry): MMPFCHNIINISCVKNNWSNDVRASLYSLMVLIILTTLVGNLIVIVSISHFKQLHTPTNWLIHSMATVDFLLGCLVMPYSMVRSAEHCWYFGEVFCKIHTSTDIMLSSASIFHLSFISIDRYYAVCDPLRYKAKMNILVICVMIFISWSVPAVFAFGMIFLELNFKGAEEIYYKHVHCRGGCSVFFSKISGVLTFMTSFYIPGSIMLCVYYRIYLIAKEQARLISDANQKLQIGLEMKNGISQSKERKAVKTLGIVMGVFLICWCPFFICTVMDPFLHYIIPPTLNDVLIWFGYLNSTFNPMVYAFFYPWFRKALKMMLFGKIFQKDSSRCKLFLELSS

[9] = cells; type: functional, cell-based; remark: listed apart in the source
[10] = biological target: T2, Trace amine-associated receptor 1; experiment: Counterscreen for agonists of the human trace amine associated receptor 1 (hTAAR1): Fluorescence-based cell-based high throughput dose response assay to identify hTAAR1 agonist that also desensitize TAAR1 receptor response.; type: functional
[11] = HEK293 cell cytotoxicity, dose response, cytotoxicity control, plate reader, cherry-picked samples (AID 743446); type: functional, cell-based
[12] = system: BJ; experiment: cells; type: functional, cell-based; conditions: Homo sapiens
[13] = system: BJ; experiment: cytotoxicity toward BJ-TERT-LT-ST fibroblasts, dose response, cell-based, RAS-independent, luminescence (AID 1935); type: functional; conditions: Homo sapiens;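 further: BJ fibroblasts immortalized with TERT plus LT and ST oncogenes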
[14] = system: HEK293; experiment: inhibitors of LMP1-driven NF-kB reporter, dose response, cell-based, HEK293, luciferase, cherry-pick (AID 588343); type: functional; conditions: Homo sapiens
[15] = system: BJ; experiment: cytotoxicity toward BJ-TERT fibroblasts, dose response, cell-based, RAS-independent, luminescence (AID 1933); type: functional; conditions: Homo sapiens
[16] = cytotoxicity toward DRD oncogenic fibroblasts, dose response, cell-based, non-viral oncogenic, luminescence (AID 1934); type: functional; conditions: Homo sapiens
[17] = HepG2 cell cytotoxicity, dose response, cytotoxicity control, plate reader, cherry-pick, antagonist series (AID 743416); type: functional, cell-based
[18] = inhibitors of SNCA 5'UTR-driven reporter translation, confirmation, H4 neuroglioma cells, luminescence (AID 1988); type: functional, cell-based
[19] = A549 cell cytotoxicity, dose response, cytotoxicity control, plate reader, cherry-pick, antagonist series (AID 743412); type: functional, cell-based
[20] = MC4R antagonists, dose response, counter-screen for LGR2 antagonist project, cell-based, plate reader, cherry pick (AID 743444); type: functional;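 further: transfected HEK 293 cells stimulated with alpha-MSH peptide; potency of inhibitors of the alpha-MSH evoked signal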
[21] = LGR2 antagonists, dose response, cell-based, HEK293, CRE-luciferase reporter, cherry pick, set 2 (AID 743343); type: functional;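 further: transfected cells were stimulated with diluted bursicon conditioned medium after compound addition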
[22] = cells; type: functional, cell-based; remark: listed apart in the source
[23] = Luminescence Cell-Based Dose Response HTS to Identify Inhibitors of 5'UTR Stem-Loop Driven Prion Protein mRNA Translation in H4 Neuroglioblastoma Cells. [Related pubchem assays: 1827 (Project Summary), 1813 (Primary HTS)]; type: functional
[24] = biological target: T3, Carboxy-terminal domain RNA polymerase II polypeptide A small phosphatase 1 (Homo sapiens, UniProt Q9GZU7); experiment: inhibitors of CTDSP1, concentration-response testing, biochemical assay, absorbance-based, actives from ultra-high-throughput screening (AID 540297); type: functional
T3 sequence (Q9GZU7 whole entry): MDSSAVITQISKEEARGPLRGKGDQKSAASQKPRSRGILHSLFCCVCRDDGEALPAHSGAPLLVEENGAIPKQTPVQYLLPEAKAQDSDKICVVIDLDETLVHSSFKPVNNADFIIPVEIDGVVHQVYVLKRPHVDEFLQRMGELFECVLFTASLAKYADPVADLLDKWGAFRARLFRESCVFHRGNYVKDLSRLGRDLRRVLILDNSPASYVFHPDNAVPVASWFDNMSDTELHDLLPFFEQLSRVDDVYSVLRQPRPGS

[25] = biological target: T4, Low molecular weight phosphotyrosine protein phosphatase (Homo sapiens, UniProt P24666); type: functional; conditions: read-out: IC50_Mean
T4 sequence (P24666 whole entry): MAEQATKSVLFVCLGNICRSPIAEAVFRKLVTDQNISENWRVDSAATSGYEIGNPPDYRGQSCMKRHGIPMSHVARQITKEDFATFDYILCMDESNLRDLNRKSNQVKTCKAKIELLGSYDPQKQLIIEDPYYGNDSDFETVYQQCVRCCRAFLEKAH

[26] = biological target: Dual specificity protein phosphatase 3 (Homo sapiens, UniProt P51452); experiment: VHR phosphatase inhibition, dose response, selectivity assay for STEP inhibitor project, biochemical (AID 602374); type: functional; conditions: read-out: IC50_Mean
[27] = biological target: T4, Low molecular weight phosphotyrosine protein phosphatase; type: functional; conditions: read-out: IC50_Mean; remark: listed apart in the source
[28] = biological target: T5, Tyrosine-protein phosphatase non-receptor type 5 (Homo sapiens, UniProt P54829); experiment: STEP phosphatase inhibitors, confirmation, biochemical, fluorescence intensity, uHTS hits (AID 602372); type: functional; conditions: read-out: IC50_Mean
T5 sequence (P54829 whole entry): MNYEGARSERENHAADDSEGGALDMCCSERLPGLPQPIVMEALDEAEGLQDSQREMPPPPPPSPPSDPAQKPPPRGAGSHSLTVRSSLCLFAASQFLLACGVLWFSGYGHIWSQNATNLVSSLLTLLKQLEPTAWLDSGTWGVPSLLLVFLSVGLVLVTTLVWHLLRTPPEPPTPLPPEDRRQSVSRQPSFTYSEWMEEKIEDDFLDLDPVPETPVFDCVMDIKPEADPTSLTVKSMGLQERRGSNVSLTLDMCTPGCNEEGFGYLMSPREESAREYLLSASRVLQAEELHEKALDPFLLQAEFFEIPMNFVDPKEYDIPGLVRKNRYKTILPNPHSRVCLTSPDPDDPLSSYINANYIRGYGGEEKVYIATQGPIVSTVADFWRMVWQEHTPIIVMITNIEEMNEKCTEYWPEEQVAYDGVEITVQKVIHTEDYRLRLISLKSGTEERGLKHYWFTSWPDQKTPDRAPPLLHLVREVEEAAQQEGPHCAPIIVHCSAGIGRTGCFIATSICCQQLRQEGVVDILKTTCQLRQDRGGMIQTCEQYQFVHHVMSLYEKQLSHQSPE

[29] = biological target: T6, Tyrosine-protein phosphatase non-receptor type 11 (Homo sapiens, UniProt Q06124); experiment: SHP2 phosphatase inhibition, dose response, selectivity assay for STEP inhibitor project, biochemical (AID 602367); type: functional; conditions: read-out: IC50_Mean
T6 sequence (Q06124 whole entry): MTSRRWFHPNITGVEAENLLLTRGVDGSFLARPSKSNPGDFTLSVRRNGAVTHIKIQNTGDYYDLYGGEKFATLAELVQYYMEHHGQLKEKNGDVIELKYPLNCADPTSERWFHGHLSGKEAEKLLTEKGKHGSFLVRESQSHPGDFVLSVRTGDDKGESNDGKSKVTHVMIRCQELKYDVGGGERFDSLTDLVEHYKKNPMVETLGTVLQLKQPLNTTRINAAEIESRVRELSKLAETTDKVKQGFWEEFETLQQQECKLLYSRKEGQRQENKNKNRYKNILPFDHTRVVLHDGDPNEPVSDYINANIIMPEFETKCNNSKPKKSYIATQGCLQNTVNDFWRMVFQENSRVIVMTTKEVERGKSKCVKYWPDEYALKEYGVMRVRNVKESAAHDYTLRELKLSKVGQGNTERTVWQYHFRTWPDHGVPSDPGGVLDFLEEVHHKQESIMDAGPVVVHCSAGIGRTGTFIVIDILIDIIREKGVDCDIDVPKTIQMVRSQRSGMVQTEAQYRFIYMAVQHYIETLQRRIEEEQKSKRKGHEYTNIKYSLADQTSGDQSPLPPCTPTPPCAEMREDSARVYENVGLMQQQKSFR

[30] = biological target: T7, Long-chain-fatty-acid--AMP ligase FadD28 (Mycobacterium tuberculosis, UniProt P9WQ59); experiment: Fluorescence polarization aasay to screen for inhibitors that compete for the binding of FadD28 to a bisubstrate Measured in Biochemical System Using Plate Reader - 2147-01_Inhibitor_Dose_CherryPick_Activity.; type: functional, Mycobacterium tuberculosis H37Rv
T7 sequence (P9WQ59 whole entry): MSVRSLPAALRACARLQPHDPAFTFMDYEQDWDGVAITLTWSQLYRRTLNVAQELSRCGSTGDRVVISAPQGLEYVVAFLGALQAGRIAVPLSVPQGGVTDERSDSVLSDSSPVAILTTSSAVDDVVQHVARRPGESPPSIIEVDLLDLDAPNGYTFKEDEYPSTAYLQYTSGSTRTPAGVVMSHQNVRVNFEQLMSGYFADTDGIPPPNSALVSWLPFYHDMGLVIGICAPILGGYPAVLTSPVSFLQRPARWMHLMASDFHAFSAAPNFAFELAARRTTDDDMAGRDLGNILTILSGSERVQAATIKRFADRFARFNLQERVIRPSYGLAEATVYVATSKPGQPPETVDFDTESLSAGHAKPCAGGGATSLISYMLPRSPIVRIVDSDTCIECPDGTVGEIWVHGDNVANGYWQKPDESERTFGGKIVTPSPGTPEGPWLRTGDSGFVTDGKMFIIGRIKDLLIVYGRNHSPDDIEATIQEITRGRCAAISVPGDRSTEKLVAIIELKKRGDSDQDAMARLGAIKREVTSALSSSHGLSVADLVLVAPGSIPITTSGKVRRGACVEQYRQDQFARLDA

Sequence of 5-hydroxytryptamine receptor 2A (P35363 whole entry, the tested form may be a part): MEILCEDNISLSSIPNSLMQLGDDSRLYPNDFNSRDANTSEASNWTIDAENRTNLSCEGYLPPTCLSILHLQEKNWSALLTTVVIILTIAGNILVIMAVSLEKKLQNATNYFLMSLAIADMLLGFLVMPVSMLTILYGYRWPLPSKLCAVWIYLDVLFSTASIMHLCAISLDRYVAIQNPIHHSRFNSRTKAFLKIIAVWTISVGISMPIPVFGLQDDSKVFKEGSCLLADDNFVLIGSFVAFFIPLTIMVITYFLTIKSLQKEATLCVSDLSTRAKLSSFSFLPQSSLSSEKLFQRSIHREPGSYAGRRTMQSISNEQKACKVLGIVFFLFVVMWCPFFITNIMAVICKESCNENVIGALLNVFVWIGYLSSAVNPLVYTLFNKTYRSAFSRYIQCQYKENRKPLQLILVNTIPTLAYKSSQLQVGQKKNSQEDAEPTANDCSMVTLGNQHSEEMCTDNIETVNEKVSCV
Sequence of Dual specificity protein phosphatase 3 (P51452 whole entry): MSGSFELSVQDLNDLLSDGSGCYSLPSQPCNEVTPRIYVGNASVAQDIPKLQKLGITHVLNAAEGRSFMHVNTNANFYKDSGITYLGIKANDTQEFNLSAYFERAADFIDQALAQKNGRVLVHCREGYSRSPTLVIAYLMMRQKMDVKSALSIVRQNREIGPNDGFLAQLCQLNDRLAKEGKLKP
Sequence of Mu-type opioid receptor (P35372 whole entry): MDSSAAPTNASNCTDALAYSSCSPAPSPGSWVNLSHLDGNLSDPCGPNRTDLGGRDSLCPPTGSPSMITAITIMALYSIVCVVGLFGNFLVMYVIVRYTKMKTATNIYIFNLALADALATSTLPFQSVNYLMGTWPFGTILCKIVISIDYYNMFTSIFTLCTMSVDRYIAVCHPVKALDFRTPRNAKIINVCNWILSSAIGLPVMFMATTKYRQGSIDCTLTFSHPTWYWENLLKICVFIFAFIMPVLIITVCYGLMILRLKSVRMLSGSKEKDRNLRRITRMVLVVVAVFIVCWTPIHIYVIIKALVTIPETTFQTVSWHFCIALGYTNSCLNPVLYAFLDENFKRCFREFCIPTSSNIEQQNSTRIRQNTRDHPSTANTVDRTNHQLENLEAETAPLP
Sequence of Disintegrin and metalloproteinase domain-containing protein 17 (P78536 whole entry, the tested form may be a part): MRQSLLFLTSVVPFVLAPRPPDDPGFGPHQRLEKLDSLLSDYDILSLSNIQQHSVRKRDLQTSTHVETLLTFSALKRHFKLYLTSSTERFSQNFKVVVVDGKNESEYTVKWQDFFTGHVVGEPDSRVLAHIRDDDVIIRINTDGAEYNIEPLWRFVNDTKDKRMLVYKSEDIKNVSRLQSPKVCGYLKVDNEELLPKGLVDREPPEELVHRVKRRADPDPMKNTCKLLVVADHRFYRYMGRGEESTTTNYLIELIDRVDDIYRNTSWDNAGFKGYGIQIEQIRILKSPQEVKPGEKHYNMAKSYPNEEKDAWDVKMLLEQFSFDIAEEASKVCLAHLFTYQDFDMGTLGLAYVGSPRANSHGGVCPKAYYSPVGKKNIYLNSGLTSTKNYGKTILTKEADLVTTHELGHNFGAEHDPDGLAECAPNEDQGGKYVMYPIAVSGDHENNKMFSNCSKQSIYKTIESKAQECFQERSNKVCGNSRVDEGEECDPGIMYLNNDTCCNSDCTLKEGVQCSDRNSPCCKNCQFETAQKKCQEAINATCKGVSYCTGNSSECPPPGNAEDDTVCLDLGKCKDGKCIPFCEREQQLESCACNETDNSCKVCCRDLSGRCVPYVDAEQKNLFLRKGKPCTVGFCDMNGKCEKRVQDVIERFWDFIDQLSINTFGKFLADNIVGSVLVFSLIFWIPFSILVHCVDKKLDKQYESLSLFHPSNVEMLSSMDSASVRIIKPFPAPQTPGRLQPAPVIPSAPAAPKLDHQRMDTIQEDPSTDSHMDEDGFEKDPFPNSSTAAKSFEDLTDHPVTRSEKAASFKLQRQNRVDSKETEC

COC(=O)Nc1nc2ccc(C(=O)c3cccs3)cc2[nH]1 [NOCODAZOLE]
IC50 [1]: > 0.833 µM (active)

O=C(c1ccco1)N1CCN(Cc2ccc(F)cc2)CC1
EC50 [2]: 92.5 µM (inactive) | EC50 [3]: 7.5 µM (active)

Cc1ccc(S(=O)(=O)Nc2ccc(-c3nnc(SCc4ccccc4Cl)o3)cc2)cc1
IC50 [4]: > 69.5 µM (inactive) | AC50 [5]: 3.88 µM (active) | IC50 [6]: > 69.5 µM (inactive)

CCCCCCCCN1C(=O)[C@@H](CC(=O)NCCc2ccccc2OC)C[C@@]2(C(=O)OC)C1=C[C@H](C(C)(C)C)O[C@@H]2C
IC50 [7]: > 29.9 µM (inactive) | EC50 [8]: 5.23 µM (active) | EC50 [9]: > 29.9 µM (inactive) | IC50 [10]: 6.93 µM (active)

COc1ccc(-c2ccc(NC(=O)c3ccco3)cc2)nn1
AC50 [11]: 21.9 µM (active) | EC50 [12]: 10.1 µM (active) | EC50 [13]: 21.8 µM (active) | AC50 [14]: 1.51 µM (active) | IC50 [1]: > 67.6 µM (inactive) | EC50 [15]: 5.74 µM (active) | EC50 [16]: 7.33 µM (active) | AC50 [17]: 15.2 µM (active) | EC50 [18]: 5.37 µM (active) | AC50 [19]: 11.1 µM (active) | AC50 [20]: 3.59 µM (active) | AC50 [21]: 3.8 µM (active) | IC50 [22]: > 67.6 µM (inactive) | EC50 [23]: 4.34 µM (active)

COc1ccc(CNCCc2ccccc2F)c(OC)c1C
IC50 [7]: > 29.9 µM (inactive) | EC50 [8]: 0.498 µM (active) | EC50 [9]: > 29.9 µM (inactive) | IC50 [10]: 3.46 µM (active)

O=C(COc1ccc(/C=N/NC(=O)c2ccccc2O)cc1)Nc1ccccc1
IC50 [24]: 5.32 µM (active) | IC50 [25]: 16.4 µM (active) | IC50 [26]: 3.88 µM (active) | IC50 [27]: 39.9 µM (inactive) | IC50 [28]: 11.7 µM (active) | IC50 [29]: 4.22 µM (active)

COC(=O)c1ccc(COc2ccc(/C=N/Nc3cccc(C(=O)O)c3)cc2)cc1
AC50 [30]: 48.9 µM (active)

CCc1ccc(CN2CCN(C(=O)c3ccco3)CC2)cc1
EC50 [2]: 92.5 µM (inactive) | EC50 [3]: 0.219 µM (active)

CCCCC(=O)Nc1ccc(C(=O)NNC(=O)c2ccc(C)c(Br)c2)cc1
IC50 [24]: 10.2 µM (active) | IC50 [25]: 16.6 µM (active) | IC50 [26]: 4.58 µM (active) | IC50 [27]: 17.2 µM (active) | IC50 [28]: 28 µM (inactive) | IC50 [29]: 3.17 µM (active)

O=C(NCCc1ccccc1)c1nc(C(F)(F)F)[nH]c1-c1ccccc1
IC50 [7]: > 29.9 µM (inactive) | EC50 [8]: 4.78 µM (active) | EC50 [9]: > 29.9 µM (inactive) | IC50 [10]: 9.43 µM (active)

NS(=O)(=O)c1ccc(NCc2cc(Cl)ccc2OCc2ccccc2F)cc1
IC50 [4]: > 69.5 µM (inactive) | IC50 [6]: 10.9 µM (inactive)
